Nine compounds from ChEMBL document CHEMBL3044693, “Synthesis and antihyperlipidemic activity of novel condensed 2-fluoromethylpyrimidines” (2013) can be followed below.

The structures appear in SMILES notation.

Common to all, as to type: functional
In assay [1] the test system is Rattus norvegicus. The experiment in a line: Antihyperlipidemic activity in high fat diet fed Sprague-Dawley Rattus norvegicus (rat) assessed as atherogenic index at 50 mg/kg, po daily for 7 days measured on day 8 (reference value: 4.15 +/-0.23 no unit).
Assay [2] has as its system Rattus norvegicus. The experiment in a line: Antihyperlipidemic activity in high fat diet fed Sprague-Dawley Rattus norvegicus (rat) assessed as increase in serum HDL level at 50 mg/kg, po daily for 7 days measured on day 8 relative to untreated control.
Assay [3] concerns Rattus norvegicus. Description: Antihyperlipidemic activity in high fat diet fed Sprague-Dawley Rattus norvegicus (rat) assessed as decrease in serum triglyceride level at 50 mg/kg, po daily for 7 days measured on day 8 relative to untreated control. Set-up: scale not given: the % may be the effect or the level left.
In assay [4] the test system is Rattus norvegicus. The experiment in a line: Antihyperlipidemic activity in high fat diet fed Sprague-Dawley Rattus norvegicus (rat) assessed as decrease in serum LDL level at 50 mg/kg, po daily for 7 days measured on day 8 relative to untreated control. Also noted: scale not given: the % may be the effect or the level left.
Assay [5] deals with Rattus norvegicus. The experiment in a line: Antihyperlipidemic activity in high fat diet fed Sprague-Dawley Rattus norvegicus (rat) assessed as decrease in serum total cholesterol level at 50 mg/kg, po daily for 7 days measured on day 8 relative to untreated control. Also noted: scale not given: the % may be the effect or the level left.
In assay [6] the test system is Rattus norvegicus. The experiment in a line: Antihyperlipidemic activity in high fat diet fed Sprague-Dawley Rattus norvegicus (rat) assessed as coronary risk index at 50 mg/kg, po daily for 7 days measured on day 8 (reference value: 5.21 +/-1.76 no unit).
The subject of assay [7] is Rattus norvegicus. The experiment in a line: Antihyperlipidemic activity in high fat diet fed Sprague-Dawley Rattus norvegicus (rat) assessed as decrease in serum VLDL level at 50 mg/kg, po daily for 7 days measured on day 8 relative to untreated control. Also noted: scale not given: the % may be the effect or the level left.
In assay [8] the test system is Rattus norvegicus. Description: Antihyperlipidemic activity in high fat diet fed Sprague-Dawley Rattus norvegicus (rat) assessed as decrease in serum LDL level at 1 mg/kg, po daily for 7 days measured on day 8 relative to untreated control. Set-up: scale not given: the % may be the effect or the level left.
Assay [9] concerns Rattus norvegicus. The experiment in a line: Antihyperlipidemic activity in high fat diet fed Sprague-Dawley Rattus norvegicus (rat) assessed as coronary risk index at 1 mg/kg, po daily for 7 days measured on day 8 (reference value: 5.21 +/-1.76 no unit).
The test system of assay [10] is Rattus norvegicus. The experiment in a line: Antihyperlipidemic activity in high fat diet fed Sprague-Dawley Rattus norvegicus (rat) assessed as decrease in serum total cholesterol level at 1 mg/kg, po daily for 7 days measured on day 8 relative to untreated control. Set-up: scale not given: the % may be the effect or the level left.
Assay [11] deals with Rattus norvegicus. Description: Antihyperlipidemic activity in high fat diet fed Sprague-Dawley Rattus norvegicus (rat) assessed as decrease in serum VLDL level at 1 mg/kg, po daily for 7 days measured on day 8 relative to untreated control. Set-up: scale not given: the % may be the effect or the level left.
The test system of assay [12] is Rattus norvegicus. Description: Antihyperlipidemic activity in high fat diet fed Sprague-Dawley Rattus norvegicus (rat) assessed as increase in serum HDL level at 1 mg/kg, po daily for 7 days measured on day 8 relative to untreated control.
In assay [13] the test system is Rattus norvegicus. The experiment in a line: Antihyperlipidemic activity in high fat diet fed Sprague-Dawley Rattus norvegicus (rat) assessed as decrease in serum triglyceride level at 1 mg/kg, po daily for 7 days measured on day 8 relative to untreated control. Set-up: scale not given: the % may be the effect or the level left.
Assay [14] deals with Rattus norvegicus. Description: Antihyperlipidemic activity in high fat diet fed Sprague-Dawley Rattus norvegicus (rat) assessed as atherogenic index at 1 mg/kg, po daily for 7 days measured on day 8 (reference value: 4.15 +/-0.23 no unit).

Regarding `COc1cc2nc(CF)[nH]c(=O)c2cc1OC`, in [1], the AI is 1.53. Moreover, the Activity in assay [2] was 62.44%; in assay [3], 45.14%; in [4], 40.26%; in [5], 26.27%; in assay [6], 3.16; in [7], 45.85%.
`CCOC(=O)C1=C(C)C2C(=O)N=C(CF)N=C2S1` (stereo not drawn): the AI in assay [1] worked out at 0.31. The Activity in assay [2] worked out at 73.48%; in [3], 57.77%; in [4], 86.92%; in assay [5], 56.19%; in assay [6], 1.69; in assay [7], 57.76%.
Regarding `O=C1[C@H](CC[C@H](O)c2ccc(F)cc2)[C@@H](c2ccc(O)cc2)N1c1ccc(F)cc1` [EZETIMIBE], the Activity is 75.41% in assay [8]; 2.01 in assay [9]; 47.57% in [10]; 52.22% in assay [11]; 74.96% in assay [12]; 52.23% in [13]. For the same compound, the AI in assay [14] is on record as 0.58.
Consider `Cc1sc2nc(CF)[nH]c(=O)c2c1C`, for which the AI in assay [1] was 1.46. For the same compound, the Activity in assay [2] was 44.68%; in [3] it was 37.8%; in [4], 45.91%; in [5] it was 32.48%; in [6] it was 3.14; in assay [7] it was 37.83%.
Consider `Cc1sc2nc(CF)[nH]c(=O)c2c1-c1ccccc1`, for which the AI in [1] was 1.51. Also, the Activity in assay [2] was 41.31%; in assay [3], 39.74%; in assay [4] it was 48.7%; in assay [5], 33.18%; in [6] it was 3.18; in assay [7], 39.77%.
With `O=c1[nH]c(CF)nc2sc3c(c12)CCCC3`, in assay [1], the AI is 0.96. Moreover, the Activity in [2] was determined as 58.27%; in assay [3], 50.71%; in [4] it was 65.82%; in [5] it was 40.44%; in [6], 2.39; in assay [7], 50.71%.
For `O=c1[nH]c(CF)nc2scc(-c3ccccc3)c12`, the AI in assay [1] came out at 1.13. The Activity in [2] is listed as 46.43%; in [3] it was 49.36%; in [4] it was 56.47%; in assay [5] it was 37.45%; in [6] it was 2.63; in [7], 49.37%.
On to `O=c1[nH]c(CF)nc2scc(-c3ccc(Cl)cc3)c12`, for which the AI in [1] turned out to be 0.63. For the same compound, the Activity in assay [2] came to 79.63%; in [3], 51.91%; in assay [4] it was 72.47%; in assay [5] it was 44.99%; in assay [6], 2.05; in [7], 51.91%.
With `O=c1[nH]c(CF)nc2ccccc12`, the AI in assay [1] was 1.2. Besides, the Activity in [2] is given as 52.4%; in [3], 46.19%; in assay [4] it was 57.31%; in assay [5] it was 38.24%; in assay [6], 2.75; in assay [7], 46.8%.
